Results published in ChEMBL document CHEMBL1158840, “Cytotoxic prenylflavonoids from Artocarpus elasticus” (2005).
In brackets after ≈: the same amount, converted by molar mass. Activity calls are given as the source filed them. No cut-off for these calls is given here.

How the values were obtained:
MCF7 = assay: Cytotoxicity against human MCF7 cells by MTT assay; type: functional; details: for EC50: read-out: ED50 (the source's name)
A549 = assay: Cytotoxicity against human A549 cells by MTT assay; type: functional; details: for EC50: read-out: ED50 (the source's name)
HT-29 = assay: Cytotoxicity against human HT-29 cells by MTT assay; type: functional; details: for EC50: read-out: ED50 (the source's name)
Hep 3B2 = assay: (§1) Cytotoxicity against human Hep3B cells by MTT assay; type: functional
[1] = as §1; type: functional, Hep 3B2; details: read-out: ED50 (the source's name)

| Structure (SMILES) | Activity (MCF7) | Activity (A549) | Activity (HT-29) | Activity (Hep 3B2) | EC50 (MCF7) | EC50 (A549) | EC50 (HT-29) | EC50 [1] |
| --- | --- | --- | --- | --- | --- | --- | --- | --- |
| CC1(C)C=Cc2c(cc(O)c3c(=O)c4c(oc23)-c2c(O)cc(O)c3c2C(C4)C(C)(C)O3)O1 (stereo not given) | inactive | inactive | inactive | inactive | – | – | – | – |
| COc1cc(O)c(-c2oc3c(CC=C(C)C)c(O)cc(O)c3c(=O)c2C(O)C=C(C)C)cc1O (stereo not given) | inactive | inactive | inactive | inactive | – | – | – | – |
| O=c1[nH]cc(F)c(=O)[nH]1 [FLUOROURACIL] | – | – | – | – | 0.2 µg/mL (≈ 1.54 µM) | 0.4 µg/mL (≈ 3.08 µM) | 0.2 µg/mL (≈ 1.54 µM) | 0.6 µg/mL (≈ 4.61 µM) |
| C=C(C)C1Cc2c(oc3c(CC=C(C)C)c4c(c(O)c3c2=O)C=CC(C)(C)O4)-c2c(O)cc(O)c(O)c21 (stereo not given) | inactive | inactive | inactive | inactive | – | – | – | – |
| C=C(C)C1Cc2c(oc3cc(O)cc(O)c3c2=O)-c2c(O)c3c(c(O)c21)OC(C)(C)C=C3 (stereo not given) [ARTELASTOXANTHONE] | – | – | – | – | 3.1 µg/mL (≈ 7.14 µM) | 10 µg/mL (≈ 23 µM) | 3.9 µg/mL (≈ 8.98 µM) | 3.2 µg/mL (≈ 7.37 µM) |
| COc1cc(O)c2c3c1-c1oc4c(/C=C(\O)C(C)(C)O)c(O)cc(O)c4c(=O)c1C[C@@H]3C(C)(C)O2 | inactive | inactive | inactive | inactive | – | – | – | – |
| CC(C)=CCC/C(C)=C/Cc1c2c(c3oc4c(c(=O)c3c1O)CC1c3c(c(O)cc(O)c3-4)OC1(C)C)C=CC(C)(C)O2 (stereo not given) | inactive | inactive | inactive | inactive | – | – | – | – |
| C=C(C)C1CC(=O)c2oc3c4c(cc(O)c3c(=O)c2C1)OC(C)(C)C=C4 (stereo not given) [ARTONOL A] | – | – | – | – | 2.7 µg/mL (≈ 7.66 µM) | 1.1 µg/mL (≈ 3.12 µM) | 3.1 µg/mL (≈ 8.8 µM) | 21.9 µg/mL (≈ 62.1 µM) |
| CC(C)=CCc1c2c(c(O)c3c(=O)c(C(O)C=C(C)C)c(-c4cc(O)c(O)cc4O)oc13)C=CC(C)(C)O2 (stereo not given) | inactive | inactive | inactive | inactive | – | – | – | – |
| CC(=O)C1c2oc3c4c(cc(O)c3c(=O)c2CC2C1C(=O)OC2(C)C)OC(C)(C)C=C4 (stereo not given) | inactive | inactive | inactive | inactive | – | – | – | – |
